Data taken from patent publication US7125838B1, “Peptides containing N-substituted L-amino acids for preventing β-strand association” (Senexis Limited, priority 1999, dated 2006).
Non-standard residues stand in square brackets, D forms with d. Residues, ends and D or L forms follow the SMILES beside them. NMeR = CN[C@@H](CCCNC(=N)N)C(=O)O; NMeF = CN[C@@H](Cc1ccccc1)C(=O)O; NMeL = CN[C@@H](CC(C)C)C(=O)O

Key:
[1] = test system: Aβ peptide; assay: Inhibition of Aβ peptide aggregation into β-sheets (method not described); assay type: biochemical
[2] = Solubility in aqueous solutions; assay type: physicochemical; details: over a wide range of pH values, completely soluble
Text: The two positively charged arginine side chains assist the peptide to penetrate cell membranes and the blood-brain barrier by making electrostatic interactions with the negatively charged phosphate head groups of their constituent phospholipid molecules, resulting in the formation of inverted micelles which carry the peptide molecules across these membranes.

[3] = target: T1, synthetic peptide fragment corresponding to residues 11 to 25 of the Alzheimer's Aβ peptide (Homo sapiens, UniProt P05067); assay: Thioflavin T fluorescence assay of Aβ peptide fragment aggregation into amyloid fibrils; assay type: biochemical
T1 construct: synthetic peptide fragment corresponding to residues 11 to 25 of the Alzheimer's Aβ peptide; host or cells: chemical synthesis (synthetic peptide)
Method: The capacity of Peptide X (SEQ ID NO:2) to inhibit the aggregation of a synthetic peptide fragment corresponding to residues 11 to 25 of the Alzheimer's Aβ peptide into amyloid fibrils was determined quantitatively using a standard assay based on the amyloid-dependent fluorescence of thioflavin T at 482 nm (Levine, 1993).
Peptide X (SEQ ID NO:2) was dissolved in water to a concentration of 10 mM (about 10 mg/ml). Alzheimer's Aβ peptide fragment, at a concentration of 50 μM (about 0.1 mg/ml) in 50 mM sodium acetate buffer (pH 5.0), was incubated at 25° C. in the absence or presence of Peptide X at concentrations ranging from 100 μM to 1 mM; the aggregation of the Aβ peptide fragment into insoluble β-fibres in the solutions was determined quantitatively after 20 minutes by measuring the fluorescence of […] added thioflavin T at 482 nm using an excitation wavelength of 440 nm.

Row | Compound | inhibiting Aβ peptide aggregation into β-sheets [1] | solubility [2] | solubility ([2]; approximate equivalent of 10 mM) | inhibition at 100 µM ([3]; 100 μM Peptide X, 50 μM Aβ fragment, 50 mM sodium acetate pH 5.0, 25° C., 20 minutes, thioflavin T at 482 nm) | disaggregation of preformed amyloid fibrils ([3]; Peptide X added to the Aβ peptide fragment after incubation) | reduction in Alzheimer's Aβ peptide aggregation (FIG. 6) ([3]; Peptide X concentration of 100 μM)
1 | (L-arginine)-(L-lysine)-(L-valine)-(Nα-methyl-L-phenylalanine)-(L-tyrosine)-(L-threonine)-(L-tryptophan) [Arg-Lys-Val-mePhe-Tyr-Thr-Trp] | effective | – | – | – | – | –
2 | CC(=O)N[C@@H](CCCNC(=N)N)C(=O)N(C)[C@@H](CCCNC(=N)N)C(=O)N[C@@H](CC(C)C)C(=O)N(C)[C@@H](CC(C)C)C(=O)N[C@@H](Cc1ccccc1)C(=O)N(C)[C@@H](Cc1ccccc1)C(N)=O [Peptide X, Nα-acetyl-(L-arginine)-(Nα-methyl-L-arginine)-(L-leucine)-(Nα-methyl-L-leucine)-(L-phenylalanine)-(Nα-methyl-L-phenylalanine)-NH2] (Ac-R[NMeR]L[NMeL]F[NMeF]-NH2) | – | ≥ 10 mM | ≥ 10000 µg/mL | > 70% | able to disaggregate preformed amyloid fibrils | 70%
